Results taken from PubChem BioAssay AID2060611 (Molecular Pharmacology Branch, DTP, NCI, 2025).
Several values for one entry are separate records, joined by “and”; a condition that tells them apart may be missing. Equal values may be shown once. One block for each molecule: values may come before it.

Tested on: 628569-122-R-J1-PDC complex spheroid viability
Assay: Anticancer human tumor 628569-122-R-J1-PDC patient-derived head and neck squamous carcinoma cell line growth inhibition [CLK]
Conditions: for viability, T/C: stronger effect = lower value
Outline: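 Multi-cell-type spheroids combined patient-derived tumor cells with HUVEC endothelial cells and human mesenchymal stem cells. Paired agents were dosed in half-log steps down from about clinical Cmax, or from 10 microM where Cmax was unknown.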

[1] = curve of first compound, second compound 0.0316 µM
[2] = curve of first compound, second compound 0.1 µM
[3] = curve of first compound, second compound 0.316 µM
[4] = curve of first compound, second compound 1 µM
[5] = curve of first compound, second compound 3.16 µM
[6] = curve of first compound, second compound 10 µM
[7] = second compound 0.0316 µM, first compound 0.0316 µM
[8] = second compound 0.0316 µM, first compound 0.1 µM
[9] = second compound 0.0316 µM, first compound 0.316 µM
[10] = second compound 0.0316 µM, first compound 1 µM
[11] = second compound 0.0316 µM, first compound 3.16 µM
[12] = second compound 0.0316 µM, first compound 10 µM
[13] = second compound 0.1 µM, first compound 0.0316 µM
[14] = second compound 0.1 µM, first compound 0.1 µM
[15] = second compound 0.1 µM, first compound 0.316 µM
[16] = second compound 0.1 µM, first compound 1 µM
[17] = second compound 0.1 µM, first compound 3.16 µM
[18] = second compound 0.1 µM, first compound 10 µM
[19] = second compound 0.316 µM, first compound 0.0316 µM
[20] = second compound 0.316 µM, first compound 0.1 µM
[21] = second compound 0.316 µM, first compound 0.316 µM
[22] = second compound 0.316 µM, first compound 1 µM
[23] = second compound 0.316 µM, first compound 3.16 µM
[24] = second compound 0.316 µM, first compound 10 µM
[25] = second compound 1 µM, first compound 0.0316 µM
[26] = second compound 1 µM, first compound 0.1 µM
[27] = second compound 1 µM, first compound 0.316 µM
[28] = second compound 1 µM, first compound 1 µM
[29] = second compound 1 µM, first compound 3.16 µM
[30] = second compound 1 µM, first compound 10 µM
[31] = second compound 3.16 µM, first compound 0.0316 µM
[32] = second compound 3.16 µM, first compound 0.1 µM
[33] = second compound 3.16 µM, first compound 0.316 µM
[34] = second compound 3.16 µM, first compound 1 µM
[35] = second compound 3.16 µM, first compound 3.16 µM
[36] = second compound 3.16 µM, first compound 10 µM
[37] = second compound 10 µM, first compound 0.0316 µM
[38] = second compound 10 µM, first compound 0.1 µM
[39] = second compound 10 µM, first compound 0.316 µM
[40] = second compound 10 µM, first compound 1 µM
[41] = second compound 10 µM, first compound 3.16 µM
[42] = second compound 10 µM, first compound 10 µM
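Note: spheroids exposed to agents for seven days before readout.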
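Throughout, for viability, T/C: 100% = DMSO vehicle control viability.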

Compound: COc1ccc([C@@H](O)c2cc(-c3ncnc4cc(N5CCOCC5)ccc34)c(F)cc2Cl)nn1 + CNC(=O)c1ccc(Nc2nc(OC3CCCC3)c3c(-c4ccc5nc(C)oc5c4)c[nH]c3n2)c(OC)c1
- IC50 [1]: 2010 nM
- IC50 [2]: 260 nM
- IC50 [3]: < 31.6 nM
- IC50 [4]: < 31.6 nM
- IC50 [5]: < 31.6 nM
- IC50 [6]: < 31.6 nM
- viability, T/C [7]: 83.7%
- viability, T/C [8]: 80.5%
- viability, T/C [9]: 78.1%
- viability, T/C [10]: 61.8%
- viability, T/C [11]: 42.3%
- viability, T/C [12]: 35%
- viability, T/C [13]: 54.5%
- viability, T/C [14]: 47.7%
- viability, T/C [15]: 49.6%
- viability, T/C [16]: 48.4%
- viability, T/C [17]: 41.9%
- viability, T/C [18]: 33.8%
- viability, T/C [19]: 47.5%
- viability, T/C [20]: 41.4%
- viability, T/C [21]: 41.7%
- viability, T/C [22]: 39%
- viability, T/C [23]: 39.4%
- viability, T/C [24]: 29.7%
- viability, T/C [25]: 46.8%
- viability, T/C [26]: 42.9%
- viability, T/C [27]: 41.7%
- viability, T/C [28]: 29.6%
- viability, T/C [29]: 36.4%
- viability, T/C [30]: 31.4%
- viability, T/C [31]: 33.2%
- viability, T/C [32]: 39.5%
- viability, T/C [33]: 34.4%
- viability, T/C [34]: 37.4%
- viability, T/C [35]: 38.4%
- viability, T/C [36]: 21%
- viability, T/C [37]: 45.1%
- viability, T/C [38]: 41.7%
- viability, T/C [39]: 32.2%
- viability, T/C [40]: 36.1%
- viability, T/C [41]: 27.8%
- viability, T/C [42]: 18.9%

Compound: C=CC(=O)Nc1cc(Nc2nccc(-c3cn(C)c4ccccc34)n2)c(OC)cc1N(C)CCN(C)C + CN1CCN(c2cc(C(=O)Nc3cc4cc(-c5cnn(C)c5)ccc4cn3)ccn2)CC1
- IC50 [1]: > 300 nM
- IC50 [2]: 102 nM
- IC50 [3]: < 0.949 nM
- IC50 [4]: < 0.949 nM
- IC50 [5]: < 0.949 nM
- IC50 [6]: < 0.949 nM
- viability, T/C (second compound 0.0316 µM, first compound 0.000949 µM): 98.5%
- viability, T/C (second compound 0.0316 µM, first compound 0.003 µM): 112%
- viability, T/C (second compound 0.0316 µM, first compound 0.00949 µM): 94.6%
- viability, T/C (second compound 0.0316 µM, first compound 0.03 µM): 89.1%
- viability, T/C (second compound 0.0316 µM, first compound 0.0949 µM): 98.4%
- viability, T/C (second compound 0.0316 µM, first compound 0.3 µM): 59.1%
- viability, T/C (second compound 0.1 µM, first compound 0.000949 µM): 56.9%
- viability, T/C (second compound 0.1 µM, first compound 0.003 µM): 68.1%
- viability, T/C (second compound 0.1 µM, first compound 0.00949 µM): 70.1%
- viability, T/C (second compound 0.1 µM, first compound 0.03 µM): 57%
- viability, T/C (second compound 0.1 µM, first compound 0.0949 µM): 52.9%
- viability, T/C (second compound 0.1 µM, first compound 0.3 µM): 19.4%
- viability, T/C (second compound 0.316 µM, first compound 0.000949 µM): 35.5%
- viability, T/C (second compound 0.316 µM, first compound 0.003 µM): 44.2%
- viability, T/C (second compound 0.316 µM, first compound 0.00949 µM): 38.6%
- viability, T/C (second compound 0.316 µM, first compound 0.03 µM): 39%
- viability, T/C (second compound 0.316 µM, first compound 0.0949 µM): 32.9%
- viability, T/C (second compound 0.316 µM, first compound 0.3 µM): 14.3%
- viability, T/C (second compound 1 µM, first compound 0.000949 µM): 5.92%
- viability, T/C (second compound 1 µM, first compound 0.003 µM): 6.94%
- viability, T/C (second compound 1 µM, first compound 0.00949 µM): 10.9%
- viability, T/C (second compound 1 µM, first compound 0.03 µM): 5.22%
- viability, T/C (second compound 1 µM, first compound 0.0949 µM): 7.08%
- viability, T/C (second compound 1 µM, first compound 0.3 µM): 5.76%
- viability, T/C (second compound 3.16 µM, first compound 0.000949 µM): 5.99%
- viability, T/C (second compound 3.16 µM, first compound 0.003 µM): 7.83%
- viability, T/C (second compound 3.16 µM, first compound 0.00949 µM): 7.06%
- viability, T/C (second compound 3.16 µM, first compound 0.03 µM): 9.16%
- viability, T/C (second compound 3.16 µM, first compound 0.0949 µM): 6.05%
- viability, T/C (second compound 3.16 µM, first compound 0.3 µM): 4.8%
- viability, T/C (second compound 10 µM, first compound 0.000949 µM): 2.23%
- viability, T/C (second compound 10 µM, first compound 0.003 µM): 2.23%
- viability, T/C (second compound 10 µM, first compound 0.00949 µM): 4.31%
- viability, T/C (second compound 10 µM, first compound 0.03 µM): 2.44%
- viability, T/C (second compound 10 µM, first compound 0.0949 µM): 2.36%
- viability, T/C (second compound 10 µM, first compound 0.3 µM): 4.04%

Compound: C=CC(=O)Nc1cc(Nc2nccc(-c3cn(C)c4ccccc34)n2)c(OC)cc1N(C)CCN(C)C
- viability, T/C (compound 0.000949 µM): 81.8% and 77.8%
- viability, T/C (compound 0.003 µM): 105% and 86.5%
- viability, T/C (compound 0.00949 µM): 92.6% and 78.3%
- viability, T/C (compound 0.03 µM): 73.7% and 73.6%
- viability, T/C (compound 0.0949 µM): 98.9% and 71.4%
- viability, T/C (compound 0.3 µM): 71.7% and 55.5%
- IC50 (curve of compound): > 300 nM

Now from value to molecule, other results behind:

- IC50 [1]: > 10000 nM
- IC50 [2]: > 10000 nM
- IC50 [3]: > 10000 nM
- IC50 [4]: < 31.6 nM
- IC50 [5]: < 31.6 nM
- IC50 [6]: < 31.6 nM
Compound: O=c1[nH]cc(F)c(=O)[nH]1 + CNC(=O)c1ccc(Nc2nc(OC3CCCC3)c3c(-c4ccc5nc(C)oc5c4)c[nH]c3n2)c(OC)c1
- viability, T/C [7]: 108%
- viability, T/C [8]: 99.2%
- viability, T/C [9]: 101%
- viability, T/C [10]: 84.8%
- viability, T/C [11]: 72.9%
- viability, T/C [12]: 60.6%
- viability, T/C [13]: 59.1%
- viability, T/C [14]: 52.6%
- viability, T/C [15]: 62.2%
- viability, T/C [16]: 52.7%
- viability, T/C [17]: 60.4%
- viability, T/C [18]: 49.8%
- viability, T/C [19]: 50.9%
- viability, T/C [20]: 60.5%
- viability, T/C [21]: 52.4%
- viability, T/C [22]: 54%
- viability, T/C [23]: 60.3%
- viability, T/C [24]: 47.8%
- viability, T/C [25]: 43.5%
- viability, T/C [26]: 50.4%
- viability, T/C [27]: 41.6%
- viability, T/C [28]: 52.3%
- viability, T/C [29]: 54.7%
- viability, T/C [30]: 47.7%
- viability, T/C [31]: 44.9%
- viability, T/C [32]: 44.9%
- viability, T/C [33]: 48.8%
- viability, T/C [34]: 48.8%
- viability, T/C [35]: 48.8%
- viability, T/C [36]: 35.6%
- viability, T/C [37]: 45.4%
- viability, T/C [38]: 37.9%
- viability, T/C [39]: 46%
- viability, T/C [40]: 46%
- viability, T/C [41]: 47.5%
- viability, T/C [42]: 45.3%

- IC50 [1]: > 10000 nM
- IC50 [2]: > 10000 nM
- IC50 [3]: > 10000 nM
- IC50 [4]: > 10000 nM
- IC50 [5]: > 10000 nM
- IC50 [6]: > 10000 nM
Compound: CC(CO)NC(=O)c1cc(-c2ccc(Cl)cc2)nn(-c2cnn(C)c2)c1=O (stereo not given) + CNC(=O)c1ccc(Nc2nc(OC3CCCC3)c3c(-c4ccc5nc(C)oc5c4)c[nH]c3n2)c(OC)c1
- viability, T/C [7]: 135%
- viability, T/C [8]: 176%
- viability, T/C [9]: 214%
- viability, T/C [10]: 189%
- viability, T/C [11]: 192%
- viability, T/C [12]: 169%
- viability, T/C [13]: 91.4%
- viability, T/C [14]: 87.9%
- viability, T/C [15]: 100%
- viability, T/C [16]: 125%
- viability, T/C [17]: 138%
- viability, T/C [18]: 124%
- viability, T/C [19]: 66.2%
- viability, T/C [20]: 82.6%
- viability, T/C [21]: 100%
- viability, T/C [22]: 104%
- viability, T/C [23]: 150%
- viability, T/C [24]: 97.4%
- viability, T/C [25]: 64.7%
- viability, T/C [26]: 68.7%
- viability, T/C [27]: 79.4%
- viability, T/C [28]: 89.6%
- viability, T/C [29]: 84.9%
- viability, T/C [30]: 81.6%
- viability, T/C [31]: 70.8%
- viability, T/C [32]: 66.2%
- viability, T/C [33]: 81%
- viability, T/C [34]: 77.6%
- viability, T/C [35]: 90%
- viability, T/C [36]: 82.4%
- viability, T/C [37]: 70%
- viability, T/C [38]: 59.4%
- viability, T/C [39]: 76.1%
- viability, T/C [40]: 93.1%
- viability, T/C [41]: 90.8%
- viability, T/C [42]: 79.3%
